Source: patent US20240269304A1, “BCL-XL INHIBITOR ANTIBODY-DRUG CONJUGATES AND METHODS OF USE THEREOF” (Novartis AG, priority 2020, published 2024)
pIC50: −log10 of the molar value. Like-named read-outs stand apart in the source and are kept apart here.

Tested on: H1650 cells
Experiment: CellTiterGlo (CTG) cell viability, 3D, 120 h, H1650 (Example 8)
Assay type: cell-based, human
Description: H1650 cells were cultivated in RPMI supplemented with 10% heat inactivated fetal bovine serum, penicillin (100 IU/ml), streptomycin (100 μg/ml) and L-glutamine (2 mM). Cell lines were cultured at 37° C. in a humidified atmosphere containing 5% 002. Cells were seeded in 96 microwell round bottom plates (96 microwell Low attachment plates , Costar reference 7007) and exposed to the payloads or ADCs for 120 h (serially diluted; 9 concentrations each, duplicates). Effects of payloads or ADCs on cell viability were assessed after 5 days of incubation at 37° C./5% CO2 by quantification of cellular ATP levels using CellTiterGlo at 75 μL reagent/well. All the conditions were tested in duplicates. Luminescence was quantified on a multipurpose plate reader. IC50S were calculated using standard four-parametric curve fitting. […] Each experiment was performed at least twice, with results being reproducible.

[1] = Homo sapiens, NCI-H1650, H1650 3D, experiment n1, read-out: H1650 3D CTG IC50 n1
[2] = Homo sapiens, NCI-H1650, H1650 3D, experiment n2, read-out: H1650 3D CTG IC50 n2
[3] = Homo sapiens, NCI-H1650, H1650 3D, mean of n1 and n2, read-out: H1650 3D CTG IC50 Mean of n1 and n2

Row | SMILES | pIC50 [1] | pIC50 [2] | pIC50 [3] | pIC50 (H1650 3D, experiment n1, read-out: H1650 3D CTG IC50 n1) | pIC50 (H1650 3D, experiment n2, read-out: H1650 3D CTG IC50 n2) | pIC50 (H1650 3D, mean of n1 and n2, read-out: H1650 3D CTG IC50 Mean of n1 and n2)
1 | COCCCNCCCC12CC3(C)CC(C)(C1)CC(Cn1ncc(-c4ccc(N5CCCc6c5nnc(Nc5nc7ccccc7s5)c6C)nc4C(=O)O)c1C)(C3)C2 [P51, 6-[3-(1,3-benzothiazol-2-ylamino)-4-methyl-6,7-dihydro-5H-pyrido[2,3-c]pyridazin-8-yl]-3-[1-[[3-[3-(3-methoxypropylamino)propyl]-5,7-dimethyl-1-adamantyl]methyl]-5-methyl-pyrazol-4-yl]pyridine-2-carboxylic acid] | 8.71 | 8.55 | 8.62 |  |  | 
2 | Cc1c(Nc2nc3ccc(F)cc3s2)nnc2c1CCCN2c1ccc(-c2cnn(CC34CC5(C)CC(C)(C3)CC(OCCN3CCCC3)(C5)C4)c2C)c(C(=O)O)n1 [P65, 3-[1-[[3,5-dimethyl-7-(2-pyrrolidin-1-ylethoxy)-1-adamantyl]methyl]-5-methyl-pyrazol-4-yl]-6-[3-[(6-fluoro-1,3-benzothiazol-2-yl)amino]-4-methyl-6,7-dihydro-5H-pyrido[2,3-c]pyridazin-8-yl]pyridine-2-carboxylic acid] | 9.00 | 8.92 | 8.96 |  |  | 
3 | Cc1c(Nc2nc3ccccc3s2)nnc2c1CCCN2c1nc(C(=O)[O-])c(CCCOc2ccc(C#CCN3CC[N+](C)(Cc4ccc(NC(=O)[C@H](CCCNC(N)=O)NC(=O)[C@@H](NC(=O)CCOCCN5C(=O)CC(C)C5=O)C(C)C)cc4)CC3)cc2F)s1 (stereo partly drawn) [Ab C - L9A-P10] |  |  |  | 9.52 | 9.30 | 9.40
4 | Cc1cc(N(C)c2ccc(-c3cnn(C[C@]45C[C@]6(C)C[C@](C)(C4)C[C@@](OCCNCCCO)(C6)C5)c3C)c(C(=O)O)n2)nnc1Nc1nc2ccccc2s1 [P26, 6-[[6-(1,3-benzothiazol-2-ylamino)-5-methyl-pyridazin-3-yl]-methyl-amino]-3-[1-[[3-[2-(3-hydroxypropylamino)ethoxy]-5,7-dimethyl-1-adamantyl]methyl]-5-methyl-pyrazol-4-yl]pyridine-2-carboxylic acid] | 9.17 | 9.16 | 9.16 |  |  | 
5 | Cc1c(Nc2nc3ccccc3s2)nnc2c1CCCN2c1ccc(-c2cnn(CC34CC5(C)CC(C)(C3)CC(OCCN3CCCCC3)(C5)C4)c2C)c(C(=O)O)n1 [P38, 6-[3-(1,3-benzothiazol-2-ylamino)-4-methyl-6,7-dihydro-5H-pyrido[2,3-c]pyridazin-8-yl]-3-[1-[[3,5-dimethyl-7-[2-(1-piperidyl)ethoxy]-1-adamantyl]methyl]-5-methyl-pyrazol-4-yl]pyridine-2-carboxylic acid] | 9.72 | 9.48 | 9.59 |  |  | 
6 | Cc1c(Nc2nc3ccccc3s2)nnc2c1CCCN2c1ccc(-c2cnn(CC34CC5(C)CC(C)(CC(CCCNCCC(=O)O)(C5)C3)C4)c2C)c(C(=O)O)n1 [P54, 6-[3-(1,3-benzothiazol-2-ylamino)-4-methyl-6,7-dihydro-5H-pyrido[2,3-c]pyridazin-8-yl]-3-[1-[[3-[3-(2-carboxyethylamino)propyl]-5,7-dimethyl-1-adamantyl]methyl]-5-methyl-pyrazol-4-yl]pyridine-2-carboxylic acid] | 7.97 | 7.93 | 7.95 |  |  | 
7 | Cc1ccc2sc(Nc3nnc4c(c3C)CCCN4c3ccc(-c4cnn(C[C@]56C[C@]7(C)C[C@](C)(C5)C[C@@](OCCN5CCCC5)(C7)C6)c4C)c(C(=O)O)n3)nc2c1 [P42, 3-[1-[[3,5-dimethyl-7-(2-pyrrolidin-1-ylethoxy)-1-adamantyl]methyl]-5-methyl-pyrazol-4-yl]-6-[4-methyl-3-[(5-methyl-1,3-benzothiazol-2-yl)amino]-6,7-dihydro-5H-pyrido[2,3-c]pyridazin-8-yl]pyridine-2-carboxylic acid] | 8.03 | 7.89 | 7.95 |  |  | 
8 | Cc1cc(N(C)c2nc(C(=O)O)c(CCCOc3ccc(C#CC(C)N(C)C)cc3F)s2)nnc1Nc1nc2ccccc2s1 (stereo not drawn) [P11, 2-[[6-(1,3-Benzothiazol-2-ylamino)-5-methyl-pyridazin-3-yl]-methyl-amino]-5-[3-[4-[3-(dimethylamino)but-1-ynyl]-2-fluoro-phenoxy]propyl]thiazole-4-carboxylic acid] | 9.15 | 8.92 | 9.02 |  |  | 
9 | CCN(CC)CC#Cc1ccc(OCCCc2sc(N3CCCc4c3nnc(Nc3nc5ccccc5s3)c4C)nc2C(=O)O)c(F)c1 [P14, 2-[3-(1,3-Benzothiazol-2-ylamino)-4-methyl-6,7-dihydro-5H-pyrido[2,3-c]pyridazin-8-yl]-5-[3-[4-[3-(diethylamino)prop-1-ynyl]-2-fluoro-phenoxy]propyl]thiazole-4-carboxylic acid] | 8.72 | 8.27 | 8.44 |  |  | 
10 | Cc1c(Nc2nc3ccccc3s2)nnc2c1CCCN2c1ccc(-c2cnn(C[C@]34C[C@]5(C)C[C@](C)(C3)C[C@@](OCCN3CCOCC3)(C5)C4)c2C)c(C(=O)O)n1 [P39, 6-[3-(1,3-benzothiazol-2-ylamino)-4-methyl-6,7-dihydro-5H-pyrido[2,3-c]pyridazin-8-yl]-3-[1-[[3,5-dimethyl-7-(2-morpholinoethoxy)-1-adamantyl]methyl]-5-methyl-pyrazol-4-yl]pyridine-2-carboxylic acid] | 9.68 | 9.47 | 9.55 |  |  | 
11 | Cc1c(Nc2nc3ccccc3s2)nnc2c1CCCN2c1ccc(-c2cnn(CC34CC5(C)CC(C)(CC(CCCN(C)CCCO)(C5)C3)C4)c2C)c(C(=O)O)n1 [P68, 6-[3-(1,3-benzothiazol-2-ylamino)-4-methyl-6,7-dihydro-5H-pyrido[2,3-c]pyridazin-8-yl]-3-[1-[[3-[3-[3-hydroxypropyl(methyl)amino]propyl]-5,7-dimethyl-1-adamantyl]methyl]-5-methyl-pyrazol-4-yl]pyridine-2-carboxylic acid] | 9.08 | 9.17 | 9.12 |  |  | 
12 | Cc1c(Nc2nc3ccccc3s2)nnc2c1CCCN2c1ccc(-c2cnn(CC34CC5(C)CC(C)(C3)CC(OCCNCC(=O)O)(C5)C4)c2C)c(C(=O)O)n1 [P47, 6-[3-(1,3-benzothiazol-2-ylamino)-4-methyl-6,7-dihydro-5H-pyrido[2,3-c]pyridazin-8-yl]-3-[1-[[3-[2-(carboxymethylamino)ethoxy]-5,7-dimethyl-1-adamantyl]methyl]-5-methyl-pyrazol-4-yl]pyridine-2-carboxylic acid] | 8.18 | 8.13 | 8.16 |  |  | 
13 | Cc1c(Nc2nc3ccccc3s2)nnc2c1CCCN2c1ccc(-c2cnn(CC34CC5(C)CC(C)(CC(CCCNCC[C@H](O)CO)(C5)C3)C4)c2C)c(C(=O)O)n1 [P69, 6-[3-(1,3-benzothiazol-2-ylamino)-4-methyl-6,7-dihydro-5H-pyrido[2,3-c]pyridazin-8-yl]-3-[1-[[3-[3-[[(3S)-3,4-dihydroxybutyl]amino]propyl]-5,7-dimethyl-1-adamantyl]methyl]-5-methyl-pyrazol-4-yl]pyridine-2-carboxylic acid] | 8.42 | 8.25 | 8.33 |  |  | 
14 | COc1ccc2sc(Nc3nnc4c(c3C)CCCN4c3ccc(-c4cnn(C[C@]56C[C@]7(C)C[C@](C)(C5)C[C@@](OCCN5CCCC5)(C7)C6)c4C)c(C(=O)O)n3)nc2c1 [P43, 3-[1-[[3,5-dimethyl-7-(2-pyrrolidin-1-ylethoxy)-1-adamantyl]methyl]-5-methyl-pyrazol-4-yl]-6-[3-[(5-methoxy-1,3-benzothiazol-2-yl)amino]-4-methyl-6,7-dihydro-5H-pyrido[2,3-c]pyridazin-8-yl]pyridine-2-carboxylic acid] | 9.28 | 9.30 | 9.28 |  |  | 
15 | Cc1c(Nc2nc3ccccc3s2)nnc2c1CCCN2c1ccc(-c2cnn(C[C@]34C[C@@]5(C)C[C@](C)(C[C@](CCCN6CCCC6)(C5)C3)C4)c2C)c(C(=O)O)n1 [P41, 6-[3-(1,3-benzothiazol-2-ylamino)-4-methyl-6,7-dihydro-5H-pyrido[2,3-c]pyridazin-8-yl]-3-[1-[[3,5-dimethyl-7-(3-pyrrolidin-1-ylpropyl)-1-adamantyl]methyl]-5-methyl-pyrazol-4-yl]pyridine-2-carboxylic acid] | 8.48 | 8.68 | 8.57 |  |  | 
16 | Cc1c(Nc2nc3ccccc3s2)nnc2c1CCCN2c1ccc(-c2cnn(CC34CC5(C)CC(C)(C3)CC(OCCN(C)CCC(=O)O)(C5)C4)c2C)c(C(=O)O)n1 [P70, 6-[3-(1,3-benzothiazol-2-ylamino)-4-methyl-6,7-dihydro-5H-pyrido[2,3-c]pyridazin-8-yl]-3-[1-[[3-[2-[2-carboxyethyl(methyl)amino]ethoxy]-5,7-dimethyl-1-adamantyl]methyl]-5-methyl-pyrazol-4-yl]pyridine-2-carboxylic acid] | 8.02 | 8.02 | 8.02 |  |  | 
17 | Cc1c(Nc2nc3ccccc3s2)nnc2c1CCCN2c1ccc(-c2cnn(CC34CC5(C)CC(C)(CC(CCCN(C)CCCC(=O)O)(C5)C3)C4)c2C)c(C(=O)O)n1 [P58, 6-[3-(1,3-benzothiazol-2-ylamino)-4-methyl-6,7-dihydro-5H-pyrido[2,3-c]pyridazin-8-yl]-3-[1-[[3-[3-[3-carboxypropyl(methyl)amino]propyl]-5,7-dimethyl-1-adamantyl]methyl]-5-methyl-pyrazol-4-yl]pyridine-2-carboxylic acid] | 8.24 | 8.04 | 8.13 |  |  | 
